Data on 23 compounds can be found in US12479850B2, “Compound having Axl and c-Met kinase inhibitory activity, preparation thereof and application thereof” (Shanghai Institute of Materia Medica, Chinese Academy of …, priority 2019, dated 2025).

The target of assay [1] is c-Met kinase domain recombinant protein (Homo sapiens, UniProt P08581). The assay can be described thus: ELISA kinase activity assay, c-Met.
For assay [2], the target named is T1, Axl kinase domain recombinant protein (Homo sapiens, UniProt P30530).
T1 sequence (P30530 536-807 limits assumed): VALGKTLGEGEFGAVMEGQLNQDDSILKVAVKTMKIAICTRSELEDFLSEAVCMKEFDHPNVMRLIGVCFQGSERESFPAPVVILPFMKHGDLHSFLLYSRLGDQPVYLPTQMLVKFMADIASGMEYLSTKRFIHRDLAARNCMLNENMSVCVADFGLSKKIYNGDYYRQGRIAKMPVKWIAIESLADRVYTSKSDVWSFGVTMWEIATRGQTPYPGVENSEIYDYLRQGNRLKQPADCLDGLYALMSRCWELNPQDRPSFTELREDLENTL
The assay is described as follows: ELISA kinase activity assay, Axl. A general note: In an ELISA, binding on a coated surface is turned into a signal by an enzyme label.

SMILES strings stand for the structures.

c-Met kinase domain recombinant protein, sequence (P08581 1078-1345 limits assumed): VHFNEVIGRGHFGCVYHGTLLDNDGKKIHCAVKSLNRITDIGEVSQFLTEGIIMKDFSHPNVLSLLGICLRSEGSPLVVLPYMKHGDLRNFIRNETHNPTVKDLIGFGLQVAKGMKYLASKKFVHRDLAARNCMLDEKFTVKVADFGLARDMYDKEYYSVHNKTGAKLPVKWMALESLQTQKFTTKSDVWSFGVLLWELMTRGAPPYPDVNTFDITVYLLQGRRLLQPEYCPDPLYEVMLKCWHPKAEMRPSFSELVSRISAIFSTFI

As for `COc1ccc(-n2c(=O)c(C(=O)Nc3ccc(Oc4ccnc(-c5cnn(C)c5)c4)c(F)c3)cn(C(C)C)c2=O)cc1` [No. 16, N-(3-fluoro-4-((2-(1-methyl-1H-pyrazol-4-yl)pyridin-4-yl)oxy)phenyl)-1-isopropyl-3-(4-methoxyphenyl)-2,4-dioxo-1,2,3,4-tetrahydropyrimidin-5-carboxamide], the IC50 in assay [1] and in assay [2] was greater than 0.1 µM each time.
With `CC(C)n1nc(C(=O)Nc2ccc(Oc3ccnc(-c4cnn(C)c4)c3)cc2)c(=O)n(-c2ccc(F)cc2)c1=O` [No. 23, 4-(4-fluorophenyl)-2-isopropyl-N-(4-((2-(1-methyl-1H-pyrazol-4-yl)pyridin-4-yl)oxy)phenyl)-3,5-dioxo-2,3,4,5-tetrahydro-1,2,4-triazin-6-carboxamide], the 50% inhibitory concentration (IC50) in assay [1] and in assay [2] was 0.01 to 0.1 µM each time.
On to `CC(C)n1cc(C(=O)Nc2ccc(-c3cc(-c4cnn(C)c4)cnc3N)c(F)c2)c(=O)n(-c2ccc(F)cc2)c1=O` [No. 38, N-(4-(2-amino-5-(1-methyl-1H-pyrazol-4-yl)pyridin-3-yl)-3-fluorophenyl)-3-(4-fluorophenyl)-1-isopropyl-2,4-dioxo-1,2,3,4-tetrahydropyrimidin-5-carboxamide], for which the IC50 in assay [1] and in assay [2] was less than 0.01 µM each time.
With `C=CCn1cc(C(=O)Nc2ccc(Oc3ccnc(-c4cnn(C)c4)c3)c(F)c2)c(=O)n(-c2ccc(F)cc2)c1=O` [No. 7, 1-allyl-N-(3-fluoro-4-((2-(1-methyl-1H-pyrazol-4-yl)pyridin-4-yl)oxy)phenyl)-3-(4-fluorophenyl)-2,4-dioxo-1,2,3,4-tetrahydropyrimidin-5-carboxamide], the half-maximal inhibitory concentration (IC50) in assay [1] and in assay [2] was less than 0.01 µM throughout.
In the case of `CC(C)n1nc(C(=O)Nc2ccc(Oc3ccnc(-c4cnn(C)c4)c3)c(F)c2)c(=O)n(-c2ccc(F)cc2)c1=O` [No. 24, N-(3-fluoro-4-((2-(1-methyl-1H-pyrazol-4-yl)pyridin-4-yl)oxy)phenyl)-4-(4-fluorophenyl)-2-isopropyl-3,5-dioxo-2,3,4,5-tetrahydro-1,2,4-triazine-6-carboxamide], the IC50 – broadly, the concentration at which inhibition is half-maximal – was 0.01 to 0.1 µM in assay [1] and less than 0.01 µM in assay [2].
In the same order, the values of `Cc1ccc(-n2c(=O)c(C(=O)Nc3ccc(Oc4ccnc(-c5cnn(C)c5)c4)c(F)c3)cn(C(C)C)c2=O)cc1` [No. 15, N-(3-fluoro-4-((2-(1-methyl-1H-pyrazol-4-yl)pyridin-4-yl)oxy)phenyl)-1-isopropyl-2,4-dioxo-3-p-tolyl-1,2,3,4-tetrahydropyrimidin-5-carboxamide] are less than 0.01 µM and less than 0.01 µM.
For `Cn1cc(-c2cc(Oc3ccc(NC(=O)c4cn(CC5CC5)c(=O)n(-c5ccc(F)cc5)c4=O)cc3F)ccn2)cn1` [No. 5, 1-(cyclopropylmethyl)-N-(3-fluoro-4-((2-(1-methyl-1H-pyrazol-4-yl)pyridin-4-yl)oxy)phenyl)-3-(4-fluorophenyl)-2,4-dioxo-1,2,3,4-tetrahydropyrimidin-5-carboxamide], in that order: less than 0.01 µM and less than 0.01 µM.
For `CC(C)n1cc(C(=O)Nc2ccc(Oc3ccnc(-c4cnn(C)c4)c3)c(F)c2)c(=O)n(-c2ccc(Cl)cc2)c1=O` [No. 14, 3-(4-chlorophenyl)-N-(3-fluoro-4-((2-(1-methyl-1H-pyrazol-4-yl)pyridin-4-yl)oxy)phenyl)-1-isopropyl-2,4-dioxo-1,2,3,4-tetrahydropyrimidin-5-carboxamide], the concentration for half-maximal inhibition (IC50) in assay [1] and in assay [2] was less than 0.01 µM throughout.
As to `CC(C)n1cc(C(=O)Nc2ccc(Oc3ccnc(-c4cnn(C)c4)c3)c(F)c2)c(=O)n(-c2ccc(F)c(F)c2)c1=O` [No. 19, 3-(3,4-difluorophenyl)-N-(3-fluoro-4-((2-(1-methyl-1H-pyrazol-4-yl)pyridin-4-yl)oxy)phenyl)-1-isopropyl-2,4-dioxo-1,2,3,4-tetrahydropyrimidin-5-carboxamide], the concentration for half-maximal inhibition (IC50) in assay [1] and in assay [2] was less than 0.01 µM in each case.
For the compound `COCCn1cc(C(=O)Nc2ccc(Oc3ccnc(-c4cnn(C)c4)c3)c(F)c2)c(=O)n(-c2ccc(F)cc2)c1=O` [No. 10, N-(3-fluoro-4-((2-(1-methyl-1H-pyrazol-4-yl)pyridin-4-yl)oxy)phenyl)-3-(4-fluorophenyl)-1-(2-methoxyethyl)-2,4-dioxo-1,2,3,4-tetrahydropyrimidin-5-carboxamide], the half-maximal inhibitory concentration (IC50) in assay [1] and in assay [2] was less than 0.01 µM throughout.
Turning to `Cn1cc(-c2cc(Oc3ccc(NC(=O)c4cn(C)c(=O)n(-c5ccc(F)cc5)c4=O)cc3F)ccn2)cn1` [No. 1, N-(3-fluoro-4-((2-(1-methyl-1H-pyrazol-4-yl)pyridin-4-yl)oxy)phenyl)-3-(4-fluorophenyl)-1-methyl-2,4-dioxo-1,2,3,4-tetrahydropyrimidin-5-carboxamide], the IC50 in assay [1] and in assay [2] was less than 0.01 µM throughout.
Turning to `CC(C)n1cc(C(=O)Nc2ccc(Oc3ccnc(-c4cnn(C)c4)c3)c(F)c2)c(=O)n(-c2cnn(C)c2)c1=O` [No. 21, N-(3-fluoro-4-((2-(1-methyl-1H-pyrazol-4-yl)pyridin-4-yl)oxy)phenyl)-1-isopropyl-3-(1-methyl-1H-pyrazol-4-yl)-2,4-dioxo-1,2,3,4-tetrahydropyrimidin-5-carboxamide], the figures for the IC50 in assay [1] and in assay [2] were greater than 0.1 µM and 0.01 to 0.1 µM, respectively.
For `CCCn1cc(C(=O)Nc2ccc(Oc3ccnc(-c4cnn(C)c4)c3)c(F)c2)c(=O)n(-c2ccc(F)cc2)c1=O` [No. 4, N-(3-fluoro-4-((2-(1-methyl-1H-pyrazol-4-yl)pyridin-4-yl)oxy)phenyl)-3-(4-fluorophenyl)-1-propyl-2,4-dioxo-1,2,3,4-tetrahydropyrimidin-5-carboxamide], in that order: less than 0.01 µM and less than 0.01 µM.
As for `CC(C)n1cc(C(=O)Nc2ccc(Oc3ccnc4[nH]cc(Br)c34)c(F)c2)c(=O)n(-c2ccc(F)cc2)c1=O` [No. 42], the IC50 in assay [1] and in assay [2] was less than 0.01 µM each time.
As to `CC(C)n1cc(C(=O)Nc2ccc(Oc3ccnc4c3OCCN4)cc2)c(=O)n(-c2ccc(F)cc2)c1=O` [No. 48, N-(4-((3,4-dihydro-2H-pyridino[3,2-b][1,4]oxazin-8-yl)oxy)phenyl)-3-(4-fluorophenyl)-1-isopropyl-2,4-dioxo-1,2,3,4-tetrahydropyrimidin-5-carboxamide], the IC50 in assay [1] is 0.01 to 0.1 µM; in assay [2], less than 0.01 µM.
In the same order, the values of `CC(C)n1cc(C(=O)Nc2ccc(Oc3ccnc(-c4cnn(C)c4)c3)c(F)c2)c(=O)n(-c2ccncc2)c1=O` [No. 20, N-(3-fluoro-4-((2-(1-methyl-1H-pyrazol-4-yl)pyridin-4-yl)oxy)phenyl)-1-isopropyl-2,4-dioxo-3-(pyridin-4-yl)-1,2,3,4-tetrahydropyrimidin-5-carboxamide] are greater than 0.1 µM and greater than 0.1 µM.
As to `CC(C)n1cc(C(=O)Nc2ccc(Oc3ccnc4c3CCN4)c(F)c2)c(=O)n(-c2ccc(F)cc2)c1=O` [No. 51, N-(4-((2,3-dihydro-1H-pyrrolo[2,3-b]pyridin-4-yl)oxy)-3-fluorophenyl)-3-(4-fluorophenyl)-1-isopropyl-2,4-dioxo-1,2,3,4-tetrahydropyrimidin-5-carboxamide], the half-maximal inhibitory concentration (IC50) in assay [1] and in assay [2] was less than 0.01 µM in each case.
`CC(C)n1cc(C(=O)Nc2ccc(Oc3ccnc4c3CC(=O)N4)c(F)c2)c(=O)n(-c2ccc(F)cc2)c1=O` [No. 45, N-(3-fluoro-4-((2-oxo-2,3-dihydro-1H-pyrrolo[2,3-b]pyridin-4-yl)oxyl)phenyl)-3-(4-fluorophenyl)-1-isopropyl-2,4-dioxo-1,2,3,4-tetrahydropyrimidin-5-carboxamide]: the IC50 in assay [1] is greater than 0.1 µM; in assay [2], 0.01 to 0.1 µM.
For `COCCCn1cc(C(=O)Nc2ccc(Oc3ccnc(-c4cnn(C)c4)c3)c(F)c2)c(=O)n(-c2ccc(F)cc2)c1=O` [No. 55, N-(3-fluoro-4-((2-(1-methyl-1H-pyrazol-4-yl)pyridin-4-yl)oxy)phenyl)-3-(4-fluorophenyl)-1-(3-methoxypropyl)-2,4-dioxo-1,2,3,4-tetrahydropyrimidin-5-carboxamide], in that order: 0.01 to 0.1 µM and 0.01 to 0.1 µM.
For `COc1ccc(-c2cnc(N)c(-c3ccc(NC(=O)c4cn(C(C)C)c(=O)n(-c5ccc(F)cc5)c4=O)cc3F)c2)cc1OC` [No. 37, N-(4-(2-amino-5-(3,4-dimethoxyphenyl)pyridin-3-yl)-3-fluorophenyl)-3-(4-fluorophenyl)-1-isopropyl-2,4-dioxo-1,2,3,4-tetrahydropyrimidin-5-carboxamide], in that order: 0.01 to 0.1 µM and less than 0.01 µM.
In the same order, the values of `CC(C)n1cc(C(=O)Nc2ccc(Oc3ccnc(-c4cnn(C)c4)c3)c(F)c2)c(=O)n(-c2ccccc2F)c1=O` [No. 18, N-(3-fluoro-4-((2-(1-methyl-1H-pyrazol-4-yl)pyridin-4-yl)oxy)phenyl)-3-(2-fluorophenyl)-1-isopropyl-2,4-dioxo-1,2,3,4-tetrahydropyrimidin-5-carboxamide] are 0.01 to 0.1 µM and less than 0.01 µM.
Regarding `Cn1cc(-c2cc(Oc3ccc(NC(=O)c4cn(-c5ccc(F)cc5)c(=O)n(-c5ccc(F)cc5)c4=O)cc3F)ccn2)cn1` [No. 12, N-(3-fluoro-4-((2-(1-methyl-1H-pyrazol-4-yl)pyridin-4-yl)oxy)phenyl)-1,3-bis(4-fluorophenyl)-2,4-dioxo-1,2,3,4-tetrahydropyrimidin-5-carboxamide], the IC50 in assay [1] and in assay [2] was greater than 0.1 µM throughout.
Consider `CC(C)n1cc(C(=O)Nc2ccc(Oc3ncnc4[nH]cc(-c5ccccc5)c34)c(F)c2)c(=O)n(-c2ccc(F)cc2)c1=O` [No. 44, N-(3-fluoro-4-((5-phenyl-7H-pyrrolo[2,3-d]pyrimidin-4-yl)oxy)phenyl)-3-(4-fluorophenyl)-1-isopropyl-2,4-dioxo-1,2,3,4-tetrahydropyrimidin-5-carboxamide], for which the values for the 50% inhibitory concentration (IC50) in assay [1] and in assay [2] were 0.01 to 0.1 µM and less than 0.01 µM, respectively.
